US20230085307A1, “PYRIDAZINONE COMPOUND AND HERBICIDE” (NISSAN CHEMICAL CORPORATION, priority 2019, published 2023)

How the values were obtained:
oval-leafed pondweed [1] = assay: Test Example 1: herbicidal activity, application before weed generation under submerged conditions (Table 16, symbol C); assay type: in vivo, oval-leafed pondweed (Monochoria vaginalis); conditions: 320 g/ha applied herbicide
In short: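 Emulsion formulation, water-diluted to set dose, was put onto the flooded surface (4 cm depth, alluvial soil) the same day weeds were sown and 2.5-leaf rice transplanted. After 3 weeks at 25-30 °C under glass, each species was rated 0 (≤5% kill) to 5 (≥90% kill).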

late watergrass = assay: Test Example 2: herbicidal activity, application during weed generation under submerged conditions (Table 17, symbol A); assay type: in vivo, late watergrass (Echinochloa oryzicola); conditions: AAH 320 g/ha; application during weed generation, submerged conditions
In short: (§1)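 Steps: fill Wagner pots with alluvial soil; add water to give 4 cm depth; sow the species mixed; grow under glass at 25–30° C.; at 1–2 leaves apply water-diluted emulsion formulation to the water surface at a fixed herbicide amount; score after 3 weeks.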

oval-leafed pondweed [2] = assay: Test Example 2: herbicidal activity, application during weed generation under submerged conditions (Table 17, symbol C); assay type: in vivo, oval-leafed pondweed (Monochoria vaginalis); conditions: AAH 320 g/ha; application during weed generation, submerged conditions
In short: as §1

rice flat sedge = assay: Test Example 3: herbicidal effect by foliage application, Wagner pot (Table 18, symbol E); assay type: in vivo, rice flat sedge (Cyperus iria); conditions: amount of applied herbicide 320 g/ha
In short: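 Plants were sown in alluvial soil held under 0.1–0.5 cm standing water and grown 14 days in a greenhouse at 25–30 °C. An emulsifiable formulation, water-diluted to the set dose, was then sprayed onto the foliage, and effects were scored three weeks later using previously defined criteria.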

green foxtail [3] = assay: Test Example 4: herbicidal effect by soil treatment (Table 19, symbol G); assay type: in vivo, green foxtail (Setaria viridis); conditions: amount of applied herbicide 320 g/ha
In short: (§2)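 Herbicidal effect was rated 3 weeks after treatment, using the scoring criteria of an earlier test. The compound, formulated as an emulsion and diluted in water to a set herbicide amount, had been sprayed uniformly on soil over freshly sown seeds. Growth took place in a greenhouse at 25° C. to 30° C.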

wild oat [4] = assay: Test Example 4: herbicidal effect by soil treatment (Table 19, symbol I); assay type: in vivo, wild oat (Avena fatua); conditions: amount of applied herbicide 320 g/ha
In short: as §2

blackgrass = assay: Test Example 4: herbicidal effect by soil treatment (Table 19, symbol J); assay type: in vivo, blackgrass (Alopecurus myosuroides); conditions: amount of applied herbicide 320 g/ha
In short: as §2

Italian ryegrass [5] = assay: Test Example 4: herbicidal effect by soil treatment (Table 19, symbol K); assay type: in vivo, Italian ryegrass (Lolium multiflorum); conditions: amount of applied herbicide 320 g/ha
In short: as §2

velvetleaf [6] = assay: Test Example 4: herbicidal effect by soil treatment (Table 19, symbol M); assay type: in vivo, velvetleaf (Abutilon theophrasti); conditions: amount of applied herbicide 320 g/ha
In short: as §2

redroot pigweed = assay: Test Example 4: herbicidal effect by soil treatment (Table 19, symbol N); assay type: in vivo, redroot pigweed (Amaranthus retroflexus); conditions: amount of applied herbicide 320 g/ha
In short: as §2

chickweed = assay: Test Example 4: herbicidal effect by soil treatment (Table 19, symbol P); assay type: in vivo, common chickweed (Stellaria media); conditions: amount of applied herbicide 320 g/ha
In short: as §2

southern crabgrass = assay: Test Example 5: herbicidal effect by foliage application, plastic box (Table 20, symbol F); assay type: in vivo, southern crabgrass (Digitaria ciliaris); conditions: foliage application, AAH 320 g/ha, evaluated three weeks after application
In short: (§3)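 Foliar spray test: emulsion formulation diluted in water to a set application rate, sprayed onto 14-day-old plants raised in diluvial soil at 25° C to 30° C under glass. Both herbicidal effect and crop effect rated visually three weeks later.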

green foxtail [7] = assay: Test Example 5: herbicidal effect by foliage application, plastic box (Table 20, symbol G); assay type: in vivo, green foxtail (Setaria viridis); conditions: foliage application, AAH 320 g/ha, evaluated three weeks after application
In short: as §3

wild oat [8] = assay: Test Example 5: herbicidal effect by foliage application, plastic box (Table 20, symbol I); assay type: in vivo, wild oat (Avena fatua); conditions: foliage application, AAH 320 g/ha, evaluated three weeks after application
In short: as §3

Italian ryegrass [9] = assay: Test Example 5: herbicidal effect by foliage application, plastic box (Table 20, symbol K); assay type: in vivo, Italian ryegrass (Lolium multiflorum); conditions: foliage application, AAH 320 g/ha, evaluated three weeks after application
In short: as §3

velvetleaf [10] = assay: Test Example 5: herbicidal effect by foliage application, plastic box (Table 20, symbol M); assay type: in vivo, velvetleaf (Abutilon theophrasti); conditions: foliage application, AAH 320 g/ha, evaluated three weeks after application
In short: as §3

persian speedwell = assay: Test Example 5: herbicidal effect by foliage application, plastic box (Table 20, symbol R); assay type: in vivo, Persian speedwell (Veronica persica); conditions: foliage application, AAH 320 g/ha, evaluated three weeks after application
In short: as §3

SMILES	Herbicidal effect on C: oval-leafed pondweed (grade 0-5) (oval-leafed pondweed [1])	herbicidal effect rating, A: late watergrass (late watergrass)	herbicidal effect rating, C: oval-leafed pondweed (oval-leafed pondweed [2])	herbicidal effect on E: rice flat sedge (rice flat sedge)	herbicidal effect on G: green foxtail (green foxtail [3])	herbicidal effect on I: wild oat (wild oat [4])	herbicidal effect on J: blackgrass (blackgrass)	herbicidal effect on K: Italian ryegrass (Italian ryegrass [5])	herbicidal effect on M: velvetleaf (velvetleaf [6])	herbicidal effect on N: redroot pigweed (redroot pigweed)	herbicidal effect on P: chickweed (chickweed)	F: southern crabgrass, herbicidal effect (criteria 0-5) (southern crabgrass)	G: green foxtail, herbicidal effect (criteria 0-5) (green foxtail [7])	I: wild oat, herbicidal effect (criteria 0-5) (wild oat [8])	K: Italian ryegrass, herbicidal effect (criteria 0-5) (Italian ryegrass [9])	M: velvetleaf, herbicidal effect (criteria 0-5) (velvetleaf [10])	R: persian speedwell, herbicidal effect (criteria 0-5) (persian speedwell)
COCC(=O)Oc1c(C)nn(C)c(=O)c1-c1c(-c2ccc(OC(F)F)cc2)sc2ccc(F)cc12 [2-283]	3 (Herbicidal rate of 40% or more and less than 70%)	5 (Herbicidal rate of 90% or more (almost completely withered))	4 (Herbicidal rate of 70% or more and less than 90%)	5 (Herbicidal rate of 90% or more (almost completely withered))	5 (Herbicidal rate of 90% or more (almost completely withered))	0 (Herbicidal rate of 5% or less (almost no effect))	3 (Herbicidal rate of 40% or more and less than 70%)	5 (Herbicidal rate of 90% or more (almost completely withered))	5 (Herbicidal rate of 90% or more (almost completely withered))	5 (Herbicidal rate of 90% or more (almost completely withered))	4 (Herbicidal rate of 70% or more and less than 90%)	5 (Herbicidal rate of 90% or more (almost completely withered))	5 (Herbicidal rate of 90% or more (almost completely withered))	3 (Herbicidal rate of 40% or more and less than 70%)	5 (Herbicidal rate of 90% or more (almost completely withered))	5 (Herbicidal rate of 90% or more (almost completely withered))	5 (Herbicidal rate of 90% or more (almost completely withered))
Cc1nn(C)c(=O)c(-c2c(-c3ccc(OC(F)F)cc3)sc3ccc(F)cc23)c1OC(=O)c1ccc(Cl)cc1 [2-286]	1 (Herbicidal rate of 5% or more and less than 20%)	3 (Herbicidal rate of 40% or more and less than 70%)	3 (Herbicidal rate of 40% or more and less than 70%)	4 (Herbicidal rate of 70% or more and less than 90%)	3 (Herbicidal rate of 40% or more and less than 70%)	0 (Herbicidal rate of 5% or less (almost no effect))	0 (Herbicidal rate of 5% or less (almost no effect))	5 (Herbicidal rate of 90% or more (almost completely withered))	0 (Herbicidal rate of 5% or less (almost no effect))	4 (Herbicidal rate of 70% or more and less than 90%)	0 (Herbicidal rate of 5% or less (almost no effect))	2 (Herbicidal rate of 20% or more and less than 40%)	5 (Herbicidal rate of 90% or more (almost completely withered))	1 (Herbicidal rate of 5% or more and less than 20%)	5 (Herbicidal rate of 90% or more (almost completely withered))	5 (Herbicidal rate of 90% or more (almost completely withered))	5 (Herbicidal rate of 90% or more (almost completely withered))
Cc1nn(C)c(=O)c(-c2c(-c3ccc(OC(F)F)cc3)sc3ccc(F)cc23)c1OC(=O)C1CCCO1 (centres unmarked) [2-289]	3 (Herbicidal rate of 40% or more and less than 70%)	3 (Herbicidal rate of 40% or more and less than 70%)	4 (Herbicidal rate of 70% or more and less than 90%)	5 (Herbicidal rate of 90% or more (almost completely withered))	5 (Herbicidal rate of 90% or more (almost completely withered))	2 (Herbicidal rate of 20% or more and less than 40%)	5 (Herbicidal rate of 90% or more (almost completely withered))	5 (Herbicidal rate of 90% or more (almost completely withered))	5 (Herbicidal rate of 90% or more (almost completely withered))	5 (Herbicidal rate of 90% or more (almost completely withered))	5 (Herbicidal rate of 90% or more (almost completely withered))	3 (Herbicidal rate of 40% or more and less than 70%)	5 (Herbicidal rate of 90% or more (almost completely withered))	4 (Herbicidal rate of 70% or more and less than 90%)	5 (Herbicidal rate of 90% or more (almost completely withered))	5 (Herbicidal rate of 90% or more (almost completely withered))	5 (Herbicidal rate of 90% or more (almost completely withered))
CCOC(=O)Oc1c(C)nn(C)c(=O)c1-c1c(-c2ccc(OC(F)F)cc2)sc2ccc(F)cc12 [2-292]	4 (Herbicidal rate of 70% or more and less than 90%)	5 (Herbicidal rate of 90% or more (almost completely withered))	5 (Herbicidal rate of 90% or more (almost completely withered))	4 (Herbicidal rate of 70% or more and less than 90%)	5 (Herbicidal rate of 90% or more (almost completely withered))	0 (Herbicidal rate of 5% or less (almost no effect))	3 (Herbicidal rate of 40% or more and less than 70%)	5 (Herbicidal rate of 90% or more (almost completely withered))	3 (Herbicidal rate of 40% or more and less than 70%)	5 (Herbicidal rate of 90% or more (almost completely withered))	4 (Herbicidal rate of 70% or more and less than 90%)	5 (Herbicidal rate of 90% or more (almost completely withered))	5 (Herbicidal rate of 90% or more (almost completely withered))	3 (Herbicidal rate of 40% or more and less than 70%)	5 (Herbicidal rate of 90% or more (almost completely withered))	5 (Herbicidal rate of 90% or more (almost completely withered))	5 (Herbicidal rate of 90% or more (almost completely withered))
